# Reference: patent publication US5246949A, “Preparation for endermism containing dopamine derivatives” (Sansho Co., Ltd., priority 1989, dated 1993)
# Counter-ions that a name gives are not always drawn. Like-named read-outs stand apart in the source and are kept apart here.
# Tests used:
# [1] = in vitro skin permeability test (horizontal membrane type in vitro diffusion cell, HPLC determination); settings: for skin permeability on adding a lactic acid ester: Test Example 1, FIG. 1; for skin permeability on adding a higher alcohol: Test Examples 5 to 8, FIGS. 5 to 8, 10% by weight
# Experimental: 100 mg of each dopamine derivative hydrochloride as shown in Table 1 was weighed and 900 mg of propylene glycol was added thereto to obtain a solution or suspension containing 10% by weight of each dopamine derivative hydrochloride. These solutions and suspensions were referred to as comparative samples a to e, respectively.
# Then 50 mg (in the cases of invention samples A to D) or 100 mg (in the cases of invention samples E to H) of each lactic acid ester or fatty acid monoglyceride as shown in Table 1 was added thereto. Further, propylene glycol was added to make the total amount 1000 mg. Thus, a solution or suspension containing 10% by weight of each dopamine derivative hydrochloride was obtained. These solutions and suspensions were referred to as invention samples A to H.
# 100 mg of each dopamine derivative hydrochloride as shown in Table 2 was weighed and 900 mg of polyethylene glycol 400 was added thereto. Thus a solution or suspension containing 10% by weight of each dopamine derivative hydrochloride was obtained. These solutions and suspensions were referred to as comparative samples f to i respectively.
# Further polyethylene […] was added thereto to make the total amount 1000 mg. Thus, a solution or suspension containing 10% by weight of each dopamine derivative hydrochloride was prepared. These solutions and suspensions were referred to as invention samples I to N, respectively.
# The abdominal hair of a male Wister rat, weighing 170 to 200 g and 7 weeks of age, was removed under anesthesia. […] Next, the whole abdominal skin was cleansed with 70% ethanol and then peeled off under anesthesia.
# The peeled skin was fixed on the lid of a horizontal membrane type in vitro diffusion cell (penetration area: 7.54 cm^2) in such a manner that the epidermis served as the donor face. As a receiver solution, 50 ml of physiological saline solution or a 30% aqueous solutioh of polyethylene glycol 400 was employed. On the donor side, 0.5 g of a solution of each sample was applied by adding dropwise. Then the lid was fixed in a receptor while paying attention so no bubbles remained in the derm side, followed by storing it in an incubator maintained at 32° C. The receptor solution was stirred with a stirrer and 0.5 ml portions thereof were collected with the lapse of time so as to determine the dopamine derivative contained therein. The determination was effected by high performance liquid chromatography. (iii) Test Results
# [2] = 5% aqueous solution of glyceryl monocaprylate; Okumura et al. 1989; cited from earlier work
# [3] = cited from earlier work
# [4] = oral or percutaneous; cited from earlier work
# [5] = oral drug; E. Lodola et al. 1986; cited from earlier work
# [6] = SOL I. Rajifer et al. 1986; cited from earlier work
# [7] = 10% by weight in propylene glycol, 32° C.
# [8] = Test Examples 2 to 4, FIGS. 2 to 4, 10% by weight in propylene glycol, 32° C.
smiles,measurement,setting,value
"CC(C)C(=O)Oc1ccc(CCN)cc1OC(=O)C(C)C.Cl [3,4-di-O-isobutyryldopamine hydrochloride]",skin permeability on adding a lactic acid ester,[1]; [7],extremely elevated
same,skin permeability on adding a higher alcohol,[1]; 32° C.,extremely elevated
"Cl.NCCc1ccc(OC(=O)c2cccnc2)c(OC(=O)c2cccnc2)c1 [3,4-di-O-nicotinoyldopamine hydrochloride]",skin permeability on adding a lactic acid ester or a fatty acid monoglyceride,[1]; [8],extremely elevated
same,skin permeability on adding a higher alcohol,[1]; 32° C.,extremely elevated
Cl.NCCc1ccc(O)c(O)c1 [dopamine hydrochloride],percutaneous penetration rate relative to dopamine hydrochloride alone,[2],34 times
same,skin damage,[3]; if percutaneously absorbed,causes skin damage
same,irritation to the skin,[3]; percutaneous,highly irritative to the skin
"CCCC(=O)Oc1ccc(CCN)cc1OC(=O)CCC [3,4-di-O-n-butyryldopamine hydrochloride]",decomposition after penetrating into the skin,[1],considerably decomposed
same,skin permeability on adding a lactic acid ester or a fatty acid monoglyceride,[1],extremely elevated
NCCc1ccc(O)c(O)c1 [Dopamine],absorption when administered orally or percutaneously,[4],scarcely absorbed
"CC(C)(C)C(=O)Oc1ccc(CCN)cc1OC(=O)C(C)(C)C.Cl [3,4-di-O-pivaloyldopamine hydrochloride]",skin permeability on adding a lactic acid ester,[1]; [7],extremely elevated
same,skin permeability on adding a higher alcohol,[1]; 32° C.,extremely elevated
CNCCc1ccc(OC(=O)C(C)C)c(OC(=O)C(C)C)c1 [ibopamine],half-life in plasma,[5],1.54 h
same,duration of the effect on improvement of the circulation (cardiac coefficient),[6],3 to 6 h
CC(CCc1ccc(O)cc1)NCCc1ccc(O)c(O)c1 (centres unmarked) [dobutamine],absorption when administered orally or percutaneously,[4],scarcely absorbed
"CNCCc1ccc(OC(=O)C(C)C)c(OC(=O)C(C)C)c1 [3,4-di-O-isobutyrylepinine hydrochloride]",skin permeability on adding a lactic acid ester or a fatty acid monoglyceride,[1]; [8],extremely elevated
same,skin permeability on adding a higher alcohol,[1]; 32° C.,extremely elevated
